In ChEMBL document CHEMBL1201862, “PubChem BioAssay data set” (2004):
Calls of active or inactive are those of the source.

Assays:
[1] = target: T1, Calpain-2 catalytic subunit (Sus scrofa, UniProt P43367); test: pig calpain II inhibitor potency, dose response, biochemical, fluorogenic peptide substrate (AID 1420); type: functional
T1 sequence (P43367 whole entry): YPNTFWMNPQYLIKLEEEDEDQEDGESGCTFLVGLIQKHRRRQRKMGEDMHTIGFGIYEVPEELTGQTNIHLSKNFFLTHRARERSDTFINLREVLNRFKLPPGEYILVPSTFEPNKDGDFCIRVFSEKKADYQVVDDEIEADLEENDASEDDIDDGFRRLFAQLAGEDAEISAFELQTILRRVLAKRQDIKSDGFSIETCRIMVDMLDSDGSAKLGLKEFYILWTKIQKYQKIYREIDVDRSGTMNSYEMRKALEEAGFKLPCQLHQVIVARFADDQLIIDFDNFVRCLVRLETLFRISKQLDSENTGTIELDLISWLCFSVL

[2] = Luminescence Cell-Based Dose Retest to Confirm Inhibitors of Cancer Stem Cells. [Related pubchem assays (depositor defined):AID2717, AID2721]; type: functional; conditions: Homo sapiens
[3] = A Cell Based Secondary Assay To Explore Cytotoxicity of Compounds that Sensitize Mycobacterium Tuberculosis to Beta-Lactam Antibiotics.; type: functional
Protein skinhead-1 = target: T2, Protein skinhead-1 (Caenorhabditis elegans, UniProt P34707); type: functional
T2 sequence (P34707 whole entry): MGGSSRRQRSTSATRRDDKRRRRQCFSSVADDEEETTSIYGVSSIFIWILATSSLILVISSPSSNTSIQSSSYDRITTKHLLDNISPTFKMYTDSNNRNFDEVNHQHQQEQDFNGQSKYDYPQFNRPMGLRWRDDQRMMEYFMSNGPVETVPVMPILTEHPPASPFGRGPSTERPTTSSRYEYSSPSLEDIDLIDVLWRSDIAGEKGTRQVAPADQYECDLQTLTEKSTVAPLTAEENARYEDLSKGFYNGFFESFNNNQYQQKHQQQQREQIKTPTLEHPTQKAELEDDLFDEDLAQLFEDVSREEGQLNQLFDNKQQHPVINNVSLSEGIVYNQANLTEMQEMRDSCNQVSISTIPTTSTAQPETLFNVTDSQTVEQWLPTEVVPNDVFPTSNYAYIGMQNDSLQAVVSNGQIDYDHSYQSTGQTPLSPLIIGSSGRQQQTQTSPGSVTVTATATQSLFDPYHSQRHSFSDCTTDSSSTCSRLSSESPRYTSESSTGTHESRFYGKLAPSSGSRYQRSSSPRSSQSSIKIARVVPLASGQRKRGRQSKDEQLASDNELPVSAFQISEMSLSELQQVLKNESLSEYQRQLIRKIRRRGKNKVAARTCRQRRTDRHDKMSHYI

Estrogen receptor = target: T3, Estrogen receptor (Homo sapiens, UniProt P03372);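 also: potency for inhibiting coactivator peptide recruitment to the receptor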
T3 sequence (P03372 whole entry): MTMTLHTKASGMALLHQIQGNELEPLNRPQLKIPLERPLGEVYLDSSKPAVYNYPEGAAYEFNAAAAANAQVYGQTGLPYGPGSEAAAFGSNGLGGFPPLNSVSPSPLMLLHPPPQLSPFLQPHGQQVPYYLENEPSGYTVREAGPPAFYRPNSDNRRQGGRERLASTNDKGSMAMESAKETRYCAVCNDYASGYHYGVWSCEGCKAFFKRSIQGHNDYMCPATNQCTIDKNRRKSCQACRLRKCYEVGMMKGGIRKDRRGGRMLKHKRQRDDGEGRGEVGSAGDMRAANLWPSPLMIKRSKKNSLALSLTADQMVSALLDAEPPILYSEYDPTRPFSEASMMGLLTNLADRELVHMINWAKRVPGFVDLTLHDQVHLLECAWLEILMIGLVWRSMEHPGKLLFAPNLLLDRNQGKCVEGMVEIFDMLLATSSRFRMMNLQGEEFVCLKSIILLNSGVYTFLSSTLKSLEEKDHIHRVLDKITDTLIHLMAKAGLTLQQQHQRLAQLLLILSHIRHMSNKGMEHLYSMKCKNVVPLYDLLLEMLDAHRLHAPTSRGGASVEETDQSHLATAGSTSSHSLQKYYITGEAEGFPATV

[4] = microbe, parasite or virus in culture; type: functional; conditions: Mycobacterium tuberculosis
[5] = inhibitors of intracellular T. cruzi replication, confirmation, NIH3T3 host cells, beta-gal luminescence (AID 2044); type: functional, cell-based;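 also: intracellular parasites grown in NIH/3T3 mouse fibroblasts as host cells; luminescent beta-galactosidase reporter signal from transgenic T. cruzi replicating inside host cells; inhibitors lower the luminescence signal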
[6] = cytotoxicity toward NIH3T3 fibroblasts, dose response, counter-screen, cell-based, ATP luminescence, mouse fibroblasts (AID 2010); type: functional;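 also: cells exposed to compound for about 90 hours before reading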
H9c2 = test: cells; type: functional, cell-based; conditions: Rattus norvegicus, H9c2, Myocardium
[7] = growth suppression of beta-catenin-knockout colon cells, dose response, cell-based, HCT116, human colon tumor (AID 1045); type: functional;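 also: HCT116 colon tumor cells with beta catenin knocked out; cells exposed to compound for 60 hours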
[8] = growth suppression of PTEN-null colon cells, dose response, cell-based, HCT116 PTEN knockout (AID 1047); type: functional;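 also: HCT116 colon tumor cells with PTEN knocked out; cells exposed to compound for 60 hours before readout; potency for loss of cell viability measured by luminescence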
[9] = target: T4, Carboxy-terminal domain RNA polymerase II polypeptide A small phosphatase 1 (Homo sapiens, UniProt Q9GZU7); test: inhibitors of CTDSP1, concentration-response testing, biochemical assay, absorbance-based, actives from ultra-high-throughput screening (AID 540297); type: functional
T4 sequence (Q9GZU7 whole entry): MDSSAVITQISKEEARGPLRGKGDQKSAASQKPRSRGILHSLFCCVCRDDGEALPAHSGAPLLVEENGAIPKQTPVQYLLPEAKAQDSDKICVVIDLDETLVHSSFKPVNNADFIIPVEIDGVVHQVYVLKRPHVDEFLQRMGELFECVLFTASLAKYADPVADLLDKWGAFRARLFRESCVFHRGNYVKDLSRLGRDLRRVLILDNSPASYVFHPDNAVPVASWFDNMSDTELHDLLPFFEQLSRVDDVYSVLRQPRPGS

[10] = target: T5, Heat shock factor protein 1 (Mus musculus, UniProt P38532); test: inhibition of MG132-induced HSE-luciferase signal, confirmation, cell-based, NIH3T3, luminescence, dose retest (AID 2382); type: functional;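 also: NIH3T3 fibroblasts with HSF1-driven luciferase reporter stressed by proteasome inhibitor MG132; luminescence from HSF1-driven luciferase expression after 8 hours of MG132 stress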
T5 sequence (P38532 whole entry): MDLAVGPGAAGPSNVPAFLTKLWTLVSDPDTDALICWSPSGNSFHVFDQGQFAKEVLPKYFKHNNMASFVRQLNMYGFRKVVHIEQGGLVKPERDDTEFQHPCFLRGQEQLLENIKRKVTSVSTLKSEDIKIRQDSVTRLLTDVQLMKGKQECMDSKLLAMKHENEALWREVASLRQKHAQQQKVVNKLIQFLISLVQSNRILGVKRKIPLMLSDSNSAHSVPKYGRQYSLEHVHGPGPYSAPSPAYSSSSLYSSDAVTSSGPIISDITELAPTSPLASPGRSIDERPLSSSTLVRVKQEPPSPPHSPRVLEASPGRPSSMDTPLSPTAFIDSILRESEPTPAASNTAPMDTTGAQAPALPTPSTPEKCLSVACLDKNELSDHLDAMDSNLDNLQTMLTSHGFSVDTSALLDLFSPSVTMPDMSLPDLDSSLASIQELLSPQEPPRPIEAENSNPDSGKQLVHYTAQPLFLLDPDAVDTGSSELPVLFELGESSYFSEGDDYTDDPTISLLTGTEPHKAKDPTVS

INS1 = test: beta cell apoptosis inhibitors, cytokine rescue, dose response, luminescence, retest (AID 449756); type: functional, cell-based; conditions: Rattus norvegicus;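 also: cell death triggered by IL-1 beta plus TNF-alpha plus IFN-gamma mixture; protective hits raise ATP signal compared with cytokine alone wells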

## CCCc1nc(SCC(=O)N2CCCc3ccccc32)c2c(=O)n(C)c(=O)n(C)c2n1
[1]
  IC50: 16.7 µM (not active)

## NC(=O)CC(NC(=O)Cc1ccc(Br)cc1)c1ccc(NC2CCCCCC2)c([N+](=O)[O-])c1 (centres undefined)
[2]
  AC50: 4.61 µM (active)
[3]
  CC50: > 40 µM (active)

## CCn1nc(C(=O)OCC(=O)N2c3ccccc3CC2C)c2ccccc2c1=O (centres undefined)
[1]
  IC50: 29.2 µM (not active)

## Cc1cc(C(F)(F)F)n2ncc(-c3ccc(F)cc3)c2n1
Protein skinhead-1
  IC50: > 100 µM (inactive)

## Cn1nnnc1SCC(=O)NC1CCCCC1
[1]
  IC50: < 0.4 µM (not active)

## Cc1ccc(CNc2nc3ccccc3n3nnnc23)cc1
Estrogen receptor
  IC50: > 50 µM (not active)

## Cc1ccc(-c2noc(C3CCCN(C(=O)c4ccc(C(C)(C)C)cc4)C3)n2)o1 (centres undefined)
[4]
  CC50: > 40 µM (active)

## COc1cc2cnc(-c3ccsc3)c(-c3ccc(F)cc3)c2cc1OC
[3]
  CC50: > 40 µM (active)

## Cc1ccc(S(=O)(=O)n2ccc3c(OCCOCCNCc4ccc(F)cc4)cccc32)cc1
[5]
  EC50: 0.226 µM (active)
[4]
  CC50: 13.3 µM (active)
[6]
  EC50: > 30 µM (not active)

## O=C(NC1CCCCC1)C(c1ccc2ncccc2c1)N(Cc1ccco1)C(=O)c1ccc2c(c1)OCCO2 (centres undefined)
H9c2
  IC50: 12.6 µM (active)
[4]
  CC50: > 40 µM (active)

## CN=C(S)N=NC1=C(O)c2cccc3cccc1c23
[7]
  EC50: 10.5 µM (active)
[8]
  EC50: 13.9 µM (active)
[3]
  CC50: 28.2 µM (active)

## COc1ccc(-c2nc(C(N)=O)c3[nH]c(=O)n(-c4cccc(Cl)c4)c3n2)cc1OC
Estrogen receptor
  IC50: 6.26 µM (active)

## COc1ccc(N2CCN(c3nc(NC(C)(C)C)nc(N4CCCCC4)n3)CC2)cc1
[1]
  IC50: 24.4 µM (not active)

## FC(F)(F)c1cccc(NCc2nnc(S)n2C2CCCCC2)c1
[1]
  IC50: 27.8 µM (not active)

## CC(=O)c1c(C)[nH]c(C(=O)COc2ccc(C#N)cc2)c1C
Estrogen receptor
  IC50: 34 µM (not active)

## CCSc1nc2ccccc2c(=O)n1CCc1ccc(OC)c(OC)c1
[3]
  CC50: > 40 µM (active)

## CCOc1ccc(NC(=O)c2cc3cc4ccc(OC)cc4nc3o2)cc1
Estrogen receptor
  IC50: 47.3 µM (not active)
[9]
  IC50: 6.92 µM (active)

## CCOc1cc(C)c(S(=O)(=O)NC2CCCCC2)cc1C
[10]
  EC50: > 195 µM (not active)
[1]
  IC50: > 50 µM (not active)

## O=C(CN1CCC(n2nnc3cc(C(F)(F)F)ccc32)CC1)NCc1cccs1
[4]
  CC50: > 40 µM (active)

## COc1cc(CNc2ccc(NC(C)=O)cc2)ccc1OCc1ccccc1C
[3]
  CC50: > 40 µM (active)

## COc1cc(CNCCO)cc(Br)c1OCc1ccccc1Cl
[3]
  CC50: 20.3 µM (active)

## O=C(c1cccc(F)c1)N1CCN(c2cccc(C(F)(F)F)c2)CC1
Protein skinhead-1
  IC50: > 100 µM (inactive)

## CCOc1ccc(Oc2ccc(-c3nnc(-c4ccccc4)o3)cc2[N+](=O)[O-])cc1
[1]
  IC50: 4.33 µM (not active)

## O=C1c2ccccc2C(=O)N1CCc1nc(-c2ccc(Cl)cc2)no1
Protein skinhead-1
  IC50: 94.6 µM (inactive)

## CCN(CC)C(=O)c1cc([N+](=O)[O-])cc2c1-c1ccc([N+](=O)[O-])cc1C2=C(C#N)C#N
INS1
  AC50: 6.32 µM (active)
[4]
  CC50: > 40 µM (active)

## Cc1cc(F)ccc1S(=O)(=O)N1CCCOC1CNC(=O)C(=O)NCc1ccc2c(c1)OCO2 (centres undefined)
Protein skinhead-1
  IC50: > 100 µM (inactive)

## c1ccc(-n2nnc(-c3nccs3)n2)cc1
Protein skinhead-1
  IC50: 88.2 µM (inactive)

## CCOc1ccc(NC(=O)CCN2CCN(C)CC2)cc1
Protein skinhead-1
  IC50: > 100 µM (inactive)

## COCCn1c(SCC(=O)Nc2cccc(C)c2)nnc1C(C)C
Protein skinhead-1
  IC50: > 100 µM (inactive)

## C/C(=N\NC(=N)SC1CC(=O)N(c2ccc(Cl)cc2)C1=O)c1cccs1 (centres undefined)
[4]
  CC50: > 40 µM (active)
